Key:
[1] = test system: advanced solid tumors; experiment: Tumor response per RECIST v1.1; type: in vivo, human
[2] = test system: FGFR4; set-up: method as in PMID 32930584; conditions: kinase biochemical assays; read-out: half-maximal inhibitory concentration (IC50); cited from earlier work
[3] = 40 mg BID (N=3) + pembrolizumab
[4] = 60 mg BID (N=3) + pembrolizumab
[5] = 80 mg BID (N=6) + pembrolizumab
[6] = 80 mg BID group + pembrolizumab
[7] = 100 mg BID (N=7) + pembrolizumab

Description: Secondary endpoints included PK parameters (e.g., maximum observed concentration [C max] and area under the concentration‐time curve [AUC]). Secondary endpoints included objective response rate (ORR), disease control rate (DCR), and duration of response (DOR) as assessed by investigator per RECIST v1.1. Tumor responses were assessed according to RECIST v1.1; computerized tomography scanning or magnetic resonance imaging was performed every 6 weeks in the first 48 weeks, and every 12 weeks thereafter. Secondary endpoints also included safety and tolerability (adverse events [AEs] as defined by the National Cancer Institute‐Common Terminology Criteria for Adverse Events CTCAE v5.0) and exploratory biomarkers (total bile acids, 7‐α‐hydroxy‐4‐cholesten‐3‐one [C4] and circulating FGF19). Safety follow‐up visit was performed within 30 days (±5 days) and 90 days (±7 days) after the last dose of the study treatment.
All patients who received at least one dose of the study treatment in the Phase 1 part of the study were included in the safety and efficacy analyses. Dose escalation and MTD assessment were primarily based on DLTs which occurred within the 28‐day observation period. Descriptive statistics were used for demographics, safety, and efficacy data. The number of patients who experienced DLTs (within and outside of the 28‐day DLT assessment period) was tabulated for each dose level. The sample size of patients required for dose escalation were determined based on the ‘3+3’ design and DLTs observed as the trial progressed.

COCCNc1cc(NC(=O)N2CCCc3cc(CN4CCN(C)CC4=O)c(C=O)nc32)ncc1C#N [EVER4010001, roblitinib]
Best overall response: Complete response [1, 3]: 0 n (%) | Best overall response: Not evaluable [1, 3]: 0 n (%) | Best overall response: Partial response [1, 3]: 0 n (%) | Best overall response: Progressive disease [1, 3]: 1 (33.3) n (%) | Best overall response: Stable disease [1, 3]: 2 (66.7) n (%) | Disease control rate (CR+PR+SD) [1, 3]: 2 (66.7) n (%) | Objective response (CR+PR) [1, 3]: 0 n (%) | DCR ([1]; 40 mg BID group + pembrolizumab): 66.7% | Best overall response: Complete response [1, 4]: 0 n (%) | Best overall response: Not evaluable [1, 4]: 0 n (%) | Best overall response: Partial response [1, 4]: 0 n (%) | Best overall response: Progressive disease [1, 4]: 2 (66.7) n (%) | Best overall response: Stable disease [1, 4]: 1 (33.3) n (%) | Disease control rate (CR+PR+SD) [1, 4]: 1 (33.3) n (%) | Objective response (CR+PR) [1, 4]: 0 n (%) | DCR ([1]; 60 mg BID group + pembrolizumab): 33.3% | Best overall response: Complete response [1, 5]: 0 n (%) | Best overall response: Not evaluable [1, 5]: 1 (16.7) n (%) | Best overall response: Partial response [1, 5]: 1 (16.7) n (%) | Best overall response: Progressive disease [1, 5]: 2 (33.3) n (%) | Best overall response: Stable disease [1, 5]: 2 (33.3) n (%) | Disease control rate (CR+PR+SD) [1, 5]: 3 (50.0) n (%) | Objective response (CR+PR) [1, 5]: 1 (16.7) n (%) | DCR [1, 6]: 50% | ORR [1, 6]: 16.7% | Best overall response: Complete response [1, 7]: 0 n (%) | Best overall response: Not evaluable [1, 7]: 1 (14.3) n (%) | Best overall response: Partial response [1, 7]: 0 n (%) | Best overall response: Stable disease [1, 7]: 0 n (%) | Disease control rate (CR+PR+SD) [1, 7]: 0 n (%) | Objective response (CR+PR) [1, 7]: 0 n (%) | DCR ([1]; 100 mg BID group + pembrolizumab): 0% | ORR ([1]; across all doses, + pembrolizumab): 5.3% | IC50 [2]: […]

Reference: article PMC10134273 (Cancer Medicine, 2023)
